The subject of assay [1] is BT474 breast tumor cell line. Nature of the assay: Methylene blue growth inhibition assay, BT474. The assay is classed as cell-based. The note with it: Homo sapiens, BT-474, 72 h; BT474, 3 days; read-out: Cell Proliferation BT474, IC50. As for the experimental part: (§1) Human breast (BT474), head and neck (HN5) and gastric tumor (N87) cell lines were cultured in low glucose DMEM (Life Technologies 12320–032) containing 10% fetal bovine serum (FBS) at 37° C. in a humidified 10% CO2, 90% air incubator. The SV40 transformed human mammary epithelial cell line HB4a was transfected with either human H-ras cDNA (HB4a r4.2) or the human c-erbB2 cDNA (HB4a c5.2). The HB4a clones were cultured in RPMI containing 10% FBS, insulin (5 μg/ml), hydrocortisone (5 μg/ml), supplemented with the selection agent hygromycin B (50 μg/ml). Cells were harvested using trypsin/EDTA, counted using a haemocytometer, and plated in […] of the appropriate media, at the following densities, in a 96-well tissue culture plate (Falcon 3075): BT474 10,000 cells/well, HN5 3,000 cells/well, N87 10,000 cells/well, HB4a c5.2 3,000 cells/well, HB4a r4.2 3,000 cells/well. The next day, compounds were diluted in DMEM containing […] gentamicin, at twice the final required concentration, from 10 mM stock solutions in DMSO. […] of these dilutions were added to the […] of media currently on the cell plates. Medium containing 0.6% DMSO was added to control wells. Compounds diluted in DMEM were added to all cell lines, including the HB4a r4.2 and HB4a c5.2 cell lines. The final concentration of DMSO in all wells was 0.3%. Cells were incubated at 37° C., 10% CO2 for 3 days. Medium was removed by aspiration. Cell biomass was estimated by staining cells with 100 μl per well methylene blue (Sigma M9140, 0.5% in 50:50 ethanol:water), and incubation at room temperature for at least 30 minutes. Stain was removed, and the plates rinsed under a gentle stream of water, and air-dried. To release stain from the cells 100 μl of solubilization solution was added (1% N-lauroyl sarcosine, Sodium salt, Sigma L5125, in PBS), and plates were shaken gently for about 30 minutes. Optical density at 620 nm was measured on a microplate reader. Percent inhibition of cell growth was calculated relative to vehicle treated control wells. Concentration of compound that inhibits 50% of cell growth (IC50) was interpolated using nonlinear regression (Levenberg-Marquardt) and the equation, y=Vmax*(1−(x/(K+x)))+Y2, where “K” was equal to the IC50.

The subject of assay [2] is HB4a c5.2 (HB4a transfected with human c-erbB2 cDNA). Nature of the assay: Methylene blue growth inhibition assay, HB4a erbB2. The class given is cell-based. The note with it: 72 h, HB4a c5.2, 3 days, read-out: Cell Proliferation HB4a erbB2, IC50. The protocol: as §1
For assay [3], the system named is N87 gastric tumor cell line. Nature of the assay: Methylene blue growth inhibition assay, N87. The class given is cell-based. As to conditions: Homo sapiens, 72 h; N87, 3 days; read-out: Cell Proliferation N87, IC50. As for the experimental part:
as §1

For assay [4], the target named is T1, c-erbB-2 (Homo sapiens, UniProt P04626).
T1 construct: baculovirus expressed, recombinant constructs of the intracellular domains of c-erbB-2 and c-erbB-4; made in house
T1 sequence (P04626 676-1255 limits assumed): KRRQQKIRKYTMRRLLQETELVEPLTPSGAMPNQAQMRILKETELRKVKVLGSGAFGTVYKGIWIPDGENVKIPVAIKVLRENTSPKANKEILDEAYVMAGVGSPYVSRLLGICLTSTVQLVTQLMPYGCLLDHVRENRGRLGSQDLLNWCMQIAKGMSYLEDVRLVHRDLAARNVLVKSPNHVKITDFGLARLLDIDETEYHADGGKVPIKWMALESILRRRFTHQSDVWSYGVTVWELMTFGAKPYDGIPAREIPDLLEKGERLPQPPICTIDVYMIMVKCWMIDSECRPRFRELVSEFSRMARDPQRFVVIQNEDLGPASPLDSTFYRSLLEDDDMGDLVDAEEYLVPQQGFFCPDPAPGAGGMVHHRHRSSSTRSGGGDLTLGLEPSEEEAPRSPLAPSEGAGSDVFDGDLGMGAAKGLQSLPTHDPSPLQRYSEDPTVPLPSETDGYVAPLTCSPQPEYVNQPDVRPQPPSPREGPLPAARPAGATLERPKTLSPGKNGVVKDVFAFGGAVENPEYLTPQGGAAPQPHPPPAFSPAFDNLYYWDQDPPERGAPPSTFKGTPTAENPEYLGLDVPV
Briefly: Substrate phosphorylation assay, erbB2, assay (b) (SPA, 33P-ATP). The assay is classed as biochemical. The note with it: Tables 1A and 1B. An excerpt:
The substrate phosphorylation assays use baculovirus expressed, recombinant constructs of the intracellular domains of c-erbB-2 and c-erbB-4 that are constitutively active and EGFr isolated from solubilised A431 cell membranes. The method measures the ability of the isolated enzymes to catalyse the transfer of the g-phosphate from ATP onto tyrosine residues in a biotinylated synthetic peptide (Biotin-[…]. Substrate phosphorylation was detected following either of the following two procedures: a.) c-ErbB-2, c-ErbB4 or EGFr were incubated for 30 minutes, at room temperature, with 10 mM MnCl2, 10 mM ATP, 5 mM peptide, and test compound (diluted from a 5 mM stock in DMSO, final DMSO concentration is 2%) in 40 mM HEPES buffer, pH 7.4. The reaction was stopped by the addition of EDTA (final concentration 0.15 mM) and a sample was transferred to a streptavidin-coated 96-well plate. The plate was washed and the level of phosphotyrosine on the peptide was determined using a Europium-labelled antiphosphotyrosine antibody and quantified with a time-resolved fluorescence technique. b.) ErbB2 was incubated for 50 minutes at room temperature with 15 mM MnCl2, 2 mM ATP, 0.25 mCi [γ-^33P] ATP/well, 5 mM peptide substrate, and test compound (diluted from a 10 mM stock in DMSO, final DMSO concentration is 2%) in 50 mM MOPS pH 7.2. The reaction was terminated by the addition of […] of PBS containing 2.5 mg/ml streptavidin-coated SPA beads (Amersham Inc.), 50 mM ATP, 10 mM EDTA and 0.1% TX-100. The microtitre plates were sealed and SPA beads were allowed to settle for at least six hours. The SPA signal was measured using a Packard Topcount 96-well plate scintillation counter (Packard Instrument Co., Meriden, Conn.).

In assay [5] the test system is HB4a r4.2 (HB4a transfected with human H-ras cDNA). Nature of the assay: Methylene blue growth inhibition assay, HB4a ras. The note with it: 72 h, HB4a r4.2, 3 days, read-out: Cell Proliferation HB4a ras, IC50. The class given is cell-based. As for the experimental part: as §1
For assay [6], the system named is HN5 head and neck tumor cell line. Briefly: Methylene blue growth inhibition assay, HN5. The class given is cell-based. As to conditions: Homo sapiens, 72 h; HN5, 3 days; read-out: Cell Proliferation HN5, IC50. The protocol:
as §1

As for `CS(=O)(=O)CCNCc1nc(-c2ccc3ncnc(Nc4ccc(OCc5cccc(F)c5)cc4)c3c2)cs1` [Example 14, N-{4-[(3-fluorobenzyl)oxy]phenyl}-6-[2-({[2-(methanesulphonyl)ethyl]amino}methyl)-1,3-thiazol-4-yl]-4-quinazolinamine], the IC50 is < 5 µM in assay [1]; < 5 µM in assay [2]; < 5 µM in assay [3]; < 0.1 µM in assay [4]; > 50 µM in assay [5]; < 5 µM in assay [6].

In the case of `CS(=O)(=O)CCNCc1nc(-c2ccc3ncnc(Nc4ccc(OCc5ccccc5)c(F)c4)c3c2)cs1` [Example 15, N-[4-(benzyloxy)-3-fluorophenyl]-6-[2-({[2-(methanesulphonyl)ethyl]amino}methyl)-1,3-thiazol-4-yl]-4-quinazolinamine], the IC50 in assay [1] was < 5 µM; in assay [2] it was < 5 µM; in assay [3] it was < 5 µM; in assay [4], < 0.1 µM; in assay [5] it was > 50 µM; in assay [6], < 5 µM.

Take `COc1cc2ncnc(Nc3ccc4c(cnn4Cc4ccccc4)c3)c2cc1-c1ccc(CNCCS(C)(=O)=O)o1` [Example 16, N-(1-benzyl-1H-indazol-5-yl)-7-methoxy-6-[5-({[2-(methanesulphonyl)ethyl]amino}methyl)-2-furyl]-4-quinazolinamine]: the IC50 in assay [1] is < 5 µM; in assay [2], < 5 µM; in assay [3] it was < 5 µM; in assay [4], < 0.1 µM; in assay [5] it was 5 to 25 µM; in assay [6], < 5 µM.

With `CS(=O)(=O)CCNCc1ccc(-c2ccc3ncnc(Nc4ccc(OCc5cccc(C(F)(F)F)c5)cc4)c3c2)o1` [Example 17, 6-[5-({[2-(methanesulphonyl)ethyl]amino}methyl)-2-furyl]-N-(4-{[3-(trifluoromethyl)benzyl]oxy}phenyl)-4-quinazolinamine], the IC50 was < 5 µM in assay [1]; 5 to 25 µM in assay [2]; 5 to 25 µM in assay [3]; < 0.1 µM in assay [4]; 5 to 25 µM in assay [5]; 5 to 25 µM in assay [6].

Take `CS(=O)(=O)CCNCc1ccc(-c2ccc3ncnc(Nc4ccc(OCc5cccc(F)c5)c(F)c4)c3c2)o1` [Example 18, N-{3-fluoro-4-[(3-fluorobenzyl)oxy]phenyl}-6-[5-({[2-(methanesulphonyl)ethyl]amino}methyl)-2-furyl]-4-quinazolinamine]: the IC50 in assay [1] was < 5 µM; in assay [2], < 5 µM; in assay [3], < 5 µM; in assay [4] it was < 0.1 µM; in assay [5] it was 5 to 25 µM; in assay [6], < 5 µM.

In the case of `CS(=O)(=O)CCNCc1ccc(-c2ccc3ncnc(Nc4ccc(OCc5cccc(Br)c5)cc4)c3c2)o1` [Example 19, N-{4-[(3-bromobenzyl)oxy]phenyl}-6-[5-({[2-(methanesulphonyl)ethyl]amino}methyl)-2-furyl]-4-quinazolinamine], the IC50 in assay [1] was < 5 µM; in assay [2], < 5 µM; in assay [3], < 5 µM; in assay [4], < 0.1 µM; in assay [5], > 50 µM; in assay [6], < 5 µM.

For `CS(=O)(=O)CCNCc1ccoc1-c1ccc2ncnc(Nc3ccc(OCc4ccccc4)cc3)c2c1` [Example 20, N-[4-(benzyloxy)phenyl]-6-[3-({[2-(methanesulphonyl)ethyl]amino}methyl)-2-furyl]-4-quinazolinamine], the IC50 in assay [1] was < 5 µM; in assay [2], < 5 µM; in assay [3], < 5 µM; in assay [4], < 0.1 µM; in assay [5] it was > 50 µM; in assay [6], 5 to 25 µM.

Source of the values: US7109333B2, “Heterocyclic compounds” (SmithKline Beecham Corporation, priority 1998, dated 2006).
